# Results taken from patent US10905661B2, “Disulfiram and metal salt staggered oral dosing regimen and staggered-release oral unit dosage forms” (Cantex Pharmaceuticals, Inc., priority 2016, dated 2021).
# Key:
# [1] = Compatibility of disulfiram and zinc gluconate in 0.1N HCl (color, precipitate); type: physicochemical
# Method: Compatibility of disulfiram and zinc gluconate for simultaneous oral administration was assessed. […] and 40 mg of disulfiram were mixed in 50 mL volumetric flasks, and 0.1N HCl was added to the flasks. […] A control was run in parallel: 0.1N HCl solution containing 50 mg of zinc gluconate alone.
# [2] = Stability of disulfiram with zinc gluconate or copper gluconate after 4 weeks at 40° C.; type: physicochemical; settings: 4 weeks @ 40° C./75% RH; Actual Conc. 0.040 mg/mL
# Method: Stability of disulfiram and zinc gluconate was tested after 4 weeks at 40° C. in 0.1 N HCl. (Table 24).
Compound,color change ([1]; 25° C./ambient humidity for 2 days),"precipitate / clarity of solution ([1]; T0 and T=2 days, 25° C.)",Conc. (disulfiram found) [2] [ng/mL]
zinc gluconate [zinc gluconate alone],no color change,remained clear,
"CCN(CC)C(=S)SSC(=S)N(CC)CC [DSF, bis(diethylthiocarbamoyl) disulfide]",,,40000
